The source of these data is patent US11337984B2, “Methods for treating, diagnosing and prognosing a haematological malignancy” (Institut de Recerca Contra La Leucèmia Josep Carreras, priority 2014, dated 2022).

The test system of the test is HL-60, KG-1, MonoMac-1 and Kasumi-1 AML cell lines. In words: Cell viability of AML cell lines by flow cytometry (7-AAD/Hoechst, volumetric count). The test is classed as cell-based, human. The conditions noted are these: subtype-specific 5HTR antagonists, 0.1, 1 and 10 μM, 72 h. The protocol: FIG. 1. […] 10^6 HL-60, KG-1, MonoMac-1 and Kasumi-1 cells per mL in complete RPMI media were treated with 0.1, 1 and 10 μM Apomorphine for 72 h. […] Cells were stained with 7-aminoactinomycin D (7-AAD, CAS no. 7240-37-1) and Hoechst 33342 (CAS no. 23491-52-3) and analyzed by flow cytometry. […] Cell number was calculated by volumetric count. A. The mean (symbol) for each AML cell line and standard deviation (error bars) from 6 different biological replicates are represented. B. The average corresponding to the four different AML cell lines is represented. *p<0.05.
FIG. 2. […] Cell number was calculated by volumetric count. A. The mean (symbol) for each AML cell line and standard deviation (error bars) from 6 different biological replicates are represented. B. AML cell lines were treated with 10 μM Apomorphine or Methiothepin in the presence or absence of 5-CT or 5-HT. *p<0.05. Apo: apomorphine; Methio: methiothepine.
In order to test the anti-leukaemic effect of 5HTR antagonists, HL-60 (Collins, Gallo et al. Nature. 1977; 270(5635):347-9), MonoMac-1 (Steube, Teepe et al. Leuk Res. 1997; 21(4):327-35), KG-1 (Koeffler and Golde. Science. 1978; 200(4346):1153-4) and Kasumi-1 (Asou, Tashiro et al. Blood. 1991; 77(9):2031-6) AML (Acute Myeloid Leukaemia) cell lines were treated with the broad 5HTR antagonist Apomorphine (CAS no. 314-19-2) at different doses for 72 h. One million cells per mL were seeded in complete RPMI media supplemented with 10% fetal bovine serum in a 96-well plate. The concentration used for the Apomorphine treatment was 0.1, 1 and 10 μM.
The human 5HTR family is composed by 7 subtypes (from 1 to 7) of receptors […]. HL-60, KG-1, MonoMac-1 and Kasumi-1 AML cell lines were incubated with subtype-specific 5HTR antagonists: Apomorphine (type 1, 2 and 5), Methiothepin (type 1 and 2) (CAS no. 74611-28-2), Amperozide (type 2) (CAS no. 75558-90-6), GR113808 (type 4) (CAS no. 144625-51-4). 72 h after treatment, cell viability was determined by flow cytometry. Cells were stained with 7-AAD (CAS no. 7240-37-1) and Hoechst 33342 (CAS no. 23491-52-3). Viability cells were identified by 7-AAD staining exclusion and the presence of Hoechst positive stain. Cell counts were measured by volume. […] In fact, the anti-leukaemic effect was reversed in the presence of a competitive agonist such as the natural ligand 5-HT (CAS no. 153-98-0) or 5-CT (CAS no. 74885-72-6).

On to `Cn1cc(C(=O)OCC2CCN(CCNS(C)(=O)=O)CC2)c2ccccc21` [GR113808], for which the “cell death on AML cell lines” value is “Only Apomorphine, Methiothepin and Amperozide induced cell death”. On to `CCNC(=O)N1CCN(CCCC(c2ccc(F)cc2)c2ccc(F)cc2)CC1` [Amperozide, 4-[4,4-bis(4-fluorophenyl)butyl]-N-ethylpiperazine-1-carboxamide], for which the “cell death on AML cell lines” value was “induced cell death”.
